According to patent US20180353462A1, “[…] AGENTS […] FLAVONOID DERIVATIVES TARGETING KINASES, SIRTUINS AND ONCOGENIC AGENTS FOR THE TREATMENT OF CANCERS” (priority 2015, published 2018):

Key:
[1] = test system: A498 (Kidney); experiment: WST-1 anticancer cell proliferation assay, A498; type: cell-based; conditions: 72 hours
Protocol: (§1) Bioactivity of the above-described compounds has been verified by an anticancer cell proliferation assay using the WST-1 (4-[3-(4-iodophenyl)-2-(4-nitrophenyl)-2H-5-tetrazolio]-1, 3-benzene disulfonate) colorimetric assay by Roche Life Sciences®. Anticancer activity was tested against several standard cancer cell lines including brain, breast, Kaposi sarcoma, leukemia, lung, melanoma, tenosynovial giant cell tumor, ovarian, pancreatic, colon and prostate cancer. Cells were trypsinized and plated into 96 well plates in 50 μl of media and incubated overnight. The next day approximately 18 hours after plating, 50 μl of media containing the required flavonoid-based pharmaceutical composition was added per well. Cells were plated at a density so that 72 hours post drug addition, the cells will be in log phase (500)-2000 cells/well). The compounds and extracts were solubilized in Dimethyl sulfoxide (DMSO). The cells are allowed to proliferate for 72 hours 37° C. in humidified atmosphere of 5% CO2. The experiment is terminated using WST-1 (Roche®) 10 μl per well and absorbance is read at 450 nm %690 nm. The effect of drugs on growth is assessed as percent of cell viability. The IC50 values were determined from the extract dose versus control growth curves using Graphpad Prism® software. All experiments were carried out in duplicate and the mean results determined.

[2] = test system: COLO-205 (Colon); experiment: WST-1 anticancer cell proliferation assay, COLO-205; type: cell-based; conditions: 72 hours
Protocol: as §1

[3] = test system: MCF-7 (Breast); experiment: WST-1 anticancer cell proliferation assay, MCF-7; type: cell-based; conditions: 72 hours
Protocol: as §1

[4] = test system: MiaPaca-2 (Pancreatic); experiment: WST-1 anticancer cell proliferation assay, MiaPaca-2; type: cell-based; conditions: 72 hours
Protocol: as §1

[5] = test system: RL (Lymphoma); experiment: WST-1 anticancer cell proliferation assay, RL; type: cell-based; conditions: 72 hours
Protocol: as §1

[6] = target: BRD4 (Homo sapiens, UniProt O60885); experiment: Inhibition of bromodomains, BRD4; type: binding; conditions: Table 3 Bromodomain
Text: (§2) Inhibition of Sirtuins, Matrix Metalloproteinase, Bromodomains was Also Confirmed Using Standard Protocols and the Results are Present in Table 2.

[7] = target: MMP-2 (Homo sapiens, UniProt P08253); experiment: Inhibition of matrix metalloproteinase, MMP-2; type: biochemical; conditions: Table 3 Matrix metalloproteinase
MMP-2, sequence (P08253 110-660): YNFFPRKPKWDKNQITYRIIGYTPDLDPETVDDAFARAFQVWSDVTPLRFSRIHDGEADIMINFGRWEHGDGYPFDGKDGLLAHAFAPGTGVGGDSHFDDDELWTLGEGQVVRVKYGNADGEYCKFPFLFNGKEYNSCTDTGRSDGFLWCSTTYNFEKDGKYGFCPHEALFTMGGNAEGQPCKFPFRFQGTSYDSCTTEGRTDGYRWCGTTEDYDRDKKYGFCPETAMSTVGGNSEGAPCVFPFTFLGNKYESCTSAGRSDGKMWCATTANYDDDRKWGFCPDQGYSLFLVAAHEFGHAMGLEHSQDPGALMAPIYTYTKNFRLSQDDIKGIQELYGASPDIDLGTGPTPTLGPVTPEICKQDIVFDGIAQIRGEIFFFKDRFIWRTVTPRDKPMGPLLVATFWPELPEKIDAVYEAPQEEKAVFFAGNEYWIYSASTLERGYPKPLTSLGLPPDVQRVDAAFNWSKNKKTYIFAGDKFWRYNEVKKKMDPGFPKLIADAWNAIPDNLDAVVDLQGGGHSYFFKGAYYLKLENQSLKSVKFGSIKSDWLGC
Text: as §2

[8] = target: MMP-7 (Homo sapiens, UniProt P09237); experiment: Inhibition of matrix metalloproteinase, MMP-7; type: biochemical; conditions: Table 3 Matrix metalloproteinase
MMP-7, sequence (P09237 95-267): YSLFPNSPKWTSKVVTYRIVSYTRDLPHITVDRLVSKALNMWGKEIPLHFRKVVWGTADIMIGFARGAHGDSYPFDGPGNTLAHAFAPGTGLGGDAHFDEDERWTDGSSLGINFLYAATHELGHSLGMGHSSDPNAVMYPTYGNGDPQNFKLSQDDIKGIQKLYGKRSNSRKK
Text: as §2

[9] = test system: CMK (leukemia); experiment: WST-1 anticancer cell proliferation assay, CMK; type: cell-based; conditions: 72 hours
Protocol: as §1

[10] = test system: MOLT-4 (Leukemia); experiment: WST-1 anticancer cell proliferation assay, MOLT-4; type: cell-based; conditions: 72 hours
Protocol: as §1

[11] = target: MMP-3 (Homo sapiens, UniProt P08254); experiment: Inhibition of matrix metalloproteinase, MMP-3; type: biochemical; conditions: Table 3 Matrix metalloproteinase
MMP-3, sequence (P08254 100-477): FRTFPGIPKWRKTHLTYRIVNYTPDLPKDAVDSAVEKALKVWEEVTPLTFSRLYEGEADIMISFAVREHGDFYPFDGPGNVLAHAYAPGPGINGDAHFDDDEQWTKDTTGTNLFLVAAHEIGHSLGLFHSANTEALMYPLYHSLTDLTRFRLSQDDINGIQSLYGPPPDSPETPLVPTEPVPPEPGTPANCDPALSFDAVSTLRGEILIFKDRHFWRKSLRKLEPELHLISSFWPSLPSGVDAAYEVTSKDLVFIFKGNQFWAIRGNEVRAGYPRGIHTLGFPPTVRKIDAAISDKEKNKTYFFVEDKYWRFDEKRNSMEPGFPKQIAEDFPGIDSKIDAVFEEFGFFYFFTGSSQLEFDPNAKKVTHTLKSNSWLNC
Text: as §2

[12] = target: MMP-9 (Homo sapiens, UniProt P14780); experiment: Inhibition of matrix metalloproteinase, MMP-9; type: biochemical; conditions: Table 3 Matrix metalloproteinase
MMP-9, sequence (P14780 94-707): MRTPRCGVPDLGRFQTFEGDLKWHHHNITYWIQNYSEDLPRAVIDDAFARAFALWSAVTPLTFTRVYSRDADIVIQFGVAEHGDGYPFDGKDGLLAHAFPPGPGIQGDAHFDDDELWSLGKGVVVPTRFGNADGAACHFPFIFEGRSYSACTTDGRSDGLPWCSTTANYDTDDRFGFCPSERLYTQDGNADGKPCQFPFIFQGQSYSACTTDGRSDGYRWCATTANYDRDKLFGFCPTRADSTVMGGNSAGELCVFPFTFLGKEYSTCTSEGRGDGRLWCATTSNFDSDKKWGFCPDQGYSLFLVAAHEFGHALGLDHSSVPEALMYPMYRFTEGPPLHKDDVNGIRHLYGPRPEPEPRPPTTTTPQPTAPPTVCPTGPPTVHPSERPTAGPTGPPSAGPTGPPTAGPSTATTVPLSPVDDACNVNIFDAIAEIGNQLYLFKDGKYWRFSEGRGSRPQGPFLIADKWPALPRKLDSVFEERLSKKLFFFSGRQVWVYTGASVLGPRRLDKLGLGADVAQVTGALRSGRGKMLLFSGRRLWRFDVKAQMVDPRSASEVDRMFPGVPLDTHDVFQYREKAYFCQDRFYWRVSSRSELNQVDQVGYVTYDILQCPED
Text: as §2

[13] = target: BCL-2 (Homo sapiens, UniProt P10415); experiment: BCL-2 inhibition; type: binding; conditions: Table 3
BCL-2, sequence (P10415 whole entry): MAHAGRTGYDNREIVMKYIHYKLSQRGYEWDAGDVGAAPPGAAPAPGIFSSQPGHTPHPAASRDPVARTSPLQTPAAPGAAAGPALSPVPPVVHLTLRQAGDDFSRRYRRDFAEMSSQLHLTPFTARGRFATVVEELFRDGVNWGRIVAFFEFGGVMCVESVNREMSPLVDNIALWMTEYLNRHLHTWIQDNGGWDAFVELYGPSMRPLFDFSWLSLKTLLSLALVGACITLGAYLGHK

SMILES	IC50 [1]	IC50 [2]	IC50 [3]	IC50 [4]	IC50 [5]	IC50 [6]	IC50 [7]	IC50 [8]	IC50 [9]	IC50 [10]	IC50 [11]	IC50 [12]	IC50 [13]
COc1cc(-c2cc(=O)c3c(O)c(C/C=C(\C)CCC=C(C)C)c(O)cc3o2)ccc1O [FBL-03A]	17 µM	27 µM	17 µM	16 µM	5.9 µM	–	–	–	–	–	–	–	–
COc1cc(-c2cc(=O)c3c(O)c(CC=C(C)C)c(O)cc3o2)ccc1O [FBL-03B]	–	–	–	–	–	10.4 µM	115 µM	17.5 µM	11.6 µM	13.2 µM	–	–	–
COc1cc(-c2cc(=O)c3c(O)cc(O)c(C/C=C(\C)CCC=C(C)C)c3o2)ccc1O [FBL-03C]	14 µM	17 µM	12 µM	9.5 µM	12 µM	–	–	–	–	–	–	–	–
COc1cc(-c2cc(=O)c3c(O)cc(O)c(CC=C(C)C)c3o2)ccc1O [FBL-03G]	–	–	–	–	–	6.14 µM	6.64 µM	3.35 µM	1.78 µM	20 µM	66.3 µM	85.4 µM	2.49 µM
